In ChEMBL document CHEMBL1141269, “Pordamacrines A and B, alkaloids from Daphniphyllum macropodum” (2007) one finds Activity data, which are given here for two compounds.

The subject of this assay is Thoracic aorta. The assay can be described thus: Vasorelaxant activity against norepinephrine-induced contraction in Wistar rat thoracic aorta at 100 uM. More on the design: scale not given: the % may be the effect or the level left. Type of assay: functional.

In the case of `COC(=O)[C@@H]1C[C@@]23C4=C(CCC5CN6C[C@@H](C)C(O)(C=CC52CO)C63O)CC[C@@H]41` (some centres not stated) [PORDAMACRINE A], the Activity stood at 50%.

Compound `COC(=O)[C@@H]1C[C@@]23C4=C(CCC5CN6C[C@@H](C)C(C=CC52CO)C63O)CC[C@@H]41` (some centres not stated) [PORDAMACRINE B] displayed an Activity of 47.1%.
